Data: patent US11173151B2, “Substituted triazole derivatives and uses thereof” (BAYER AKTIENGESELLSCHAFT, priority 2017, dated 2021)

How the values were obtained:
human V2 receptor = target: T1, human V2 receptor (Homo sapiens, UniProt P30518); assay: Cellular in vitro assay for determining vasopressin receptor activity, V2 receptor cell line (CHO, CRE-luciferase); format: cell-based; conditions: CHO cell line transfected with human V2 receptor; [Arg8]-vasopressin at EC50 concentration, 3 hours; read-out: IC50 hV2
T1 construct: expressed in transfected cells; host or cells: CHO K1 (ATCC) expressing firefly luciferase under a CRE-responsive promoter

human V1a receptor = target: T2, human V1a receptor (Homo sapiens, UniProt P37288); assay: Cellular in vitro assay for determining vasopressin receptor activity, V1a receptor cell line (CHO, aequorin luminescence); format: cell-based; conditions: for IC50: CHO cell line transfected with human V1a receptor, [Arg]-vasopressin at EC50 concentration, read-out: IC50 hV1a; for ratio IC50 hV2/hV1a: selectivity ratio IC50 hV2 / IC50 hV1a
T2 construct: expressed in transfected cells; host or cells: CHO K1 (ATCC), also stably transfected with a modified aequorin
Outline: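 IC50 from inhibition of [Arg]-vasopressin (EC50 concentration)-evoked aequorin luminescence in CHO K1 cells, with 10-min compound pretreatment.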

T2 sequence (P37288 whole entry): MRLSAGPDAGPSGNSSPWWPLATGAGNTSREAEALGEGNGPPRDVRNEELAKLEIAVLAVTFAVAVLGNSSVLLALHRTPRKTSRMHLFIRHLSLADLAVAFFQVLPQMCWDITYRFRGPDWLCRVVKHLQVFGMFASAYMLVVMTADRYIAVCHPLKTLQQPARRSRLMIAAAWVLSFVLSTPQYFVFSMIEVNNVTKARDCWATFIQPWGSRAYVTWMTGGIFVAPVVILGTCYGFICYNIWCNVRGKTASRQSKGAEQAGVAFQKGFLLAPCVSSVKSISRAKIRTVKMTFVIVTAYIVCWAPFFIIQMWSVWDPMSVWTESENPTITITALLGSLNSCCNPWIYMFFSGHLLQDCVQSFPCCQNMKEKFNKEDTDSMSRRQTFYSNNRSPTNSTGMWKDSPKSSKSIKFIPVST
T1 sequence (P30518 whole entry): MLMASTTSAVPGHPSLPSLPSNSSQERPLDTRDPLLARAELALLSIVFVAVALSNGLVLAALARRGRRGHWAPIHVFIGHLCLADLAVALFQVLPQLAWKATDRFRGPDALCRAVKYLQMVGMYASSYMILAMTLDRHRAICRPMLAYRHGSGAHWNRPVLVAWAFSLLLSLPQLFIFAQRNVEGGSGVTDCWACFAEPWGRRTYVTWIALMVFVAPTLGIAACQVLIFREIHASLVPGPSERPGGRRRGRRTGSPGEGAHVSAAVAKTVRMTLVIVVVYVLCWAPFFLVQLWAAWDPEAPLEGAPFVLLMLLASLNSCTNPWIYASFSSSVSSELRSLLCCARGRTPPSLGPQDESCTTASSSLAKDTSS

Row | SMILES | IC50 (human V2 receptor) | IC50 (human V1a receptor) | ratio IC50 hV2/hV1a (human V1a receptor)
1 | O=C(Nc1ncccc1-n1cnc(Cn2nc(-c3ccc(Cl)cc3)n(C[C@H](O)C(F)(F)F)c2=O)n1)C1CC1F (stereo partly drawn) [Example 85, N-{3-[3-({3-(4-Chlorophenyl)-5-oxo-4-[(2S)-3,3,3-trifluoro-2-hydrxypropyl]-4,5-dihydro-1H-1,2,4-triazol-1-yl}methyl)-1H-1,2,4-triazol-1-yl]pyridin-2-yl}-2-fluorocyclopropanecarboxamide] | 4950 nM | 7.35 nM | 673.5
2 | O=C(CC1CC1)Nc1ncccc1-n1cnc(Cn2nc(-c3ccc(Cl)cc3)n(C[C@H](O)C(F)(F)F)c2=O)n1 [Example 87, N-{3-[3-({3-(4-Chlorophenyl)-5-oxo-4-[(2S)-3,3,3-trifluoro-2-hydroxypropyl]-4,5-dihydro-1H-1,2,4-triazol-1-yl}methyl)-1H-1,2,4-triazol-1-yl]pyridin-2-yl}-2-cyclopropylacetamide] | 1100 nM | 4.8 nM | 228.1
3 | O=C(Cn1cncn1)Nc1ncccc1-n1cnc(Cn2nc(-c3ccc(Cl)cc3)n(C[C@H](O)C(F)(F)F)c2=O)n1 [Example 88, N-{3-[3-({3-(4-Chlorophenyl)-5-oxo-4-[(2S)-3,3,3-trifluoro-2-hydroxypropyl]-4,5-dihydro-1H-1,2,4-triazol-1-yl}methyl)-1H-1,2,4-triazol-1-yl]pyridin-2-yl}-2-(1H-1,2,4-triazol-1-yl)acetamide] | 1170 nM | 41 nM | 28.7
4 | O=C(Cc1cccnc1)Nc1ncccc1-n1cnc(Cn2nc(-c3ccc(Cl)cc3)n(C[C@H](O)C(F)(F)F)c2=O)n1 [Example 89] | 1850 nM | 36 nM | 51.4
5 | CN1CC(C(=O)Nc2ncccc2-n2cnc(Cn3nc(-c4ccc(Cl)cc4)n(C[C@H](O)C(F)(F)F)c3=O)n2)CC1=O (stereo partly drawn) [Example 90] | 1550 nM | 90 nM | 17.2
6 | O=C(CN1CCCC1=O)Nc1ncccc1-n1cnc(Cn2nc(-c3ccc(Cl)cc3)n(C[C@H](O)C(F)(F)F)c2=O)n1 [Example 91] | 1250 nM | 195 nM | 6.4
7 | Cc1cnn(CC(=O)Nc2ncccc2-n2cnc(Cn3nc(-c4ccc(Cl)cc4)n(C[C@H](O)C(F)(F)F)c3=O)n2)c1 [Example 92] | 1750 nM | 240 nM | 7.3
8 | O=C(Nc1ncccc1-n1cnc(Cn2nc(-c3ccc(Cl)cc3)n(C[C@H](O)C(F)(F)F)c2=O)n1)c1cncc(F)c1 [Example 93] | 505 nM | 7.65 nM | 66.0
9 | Cc1nccn1CC(=O)Nc1ncccc1-n1cnc(Cn2nc(-c3ccc(Cl)cc3)n(C[C@H](O)C(F)(F)F)c2=O)n1 [Example 94] | 2250 nM | 16 nM | 140.6
10 | O=C(Nc1ncccc1-n1cnc(Cn2nc(-c3ccc(Cl)cc3)n(C[C@H](O)C(F)(F)F)c2=O)n1)c1ccccc1 [Example 95] | 2150 nM | 92 nM | 23.4
11 | CNCC(=O)Nc1ncccc1-n1cnc(Cn2nc(-c3ccc(Cl)cc3)n(C[C@H](O)C(F)(F)F)c2=O)n1 [Example 96] | 560 nM | 2.1 nM | 266.7
12 | O=C(Cc1ccccc1)Nc1ncccc1-n1cnc(Cn2nc(-c3ccc(Cl)cc3)n(C[C@H](O)C(F)(F)F)c2=O)n1 [Example 97] | 2050 nM | 135 nM | 15.2
13 | CC1(C(=O)Nc2ncccc2-n2cnc(Cn3nc(-c4ccc(Cl)cc4)n(C[C@H](O)C(F)(F)F)c3=O)n2)CCCO1 (stereo partly drawn) [Example 98] | 945 nM | 125 nM | 7.6
14 | CC1CC(=O)NC1C(=O)Nc1ncccc1-n1cnc(Cn2nc(-c3ccc(Cl)cc3)n(C[C@H](O)C(F)(F)F)c2=O)n1 (stereo partly drawn) [Example 99] | 4000 nM | 40 nM | 100.0
15 | O=C(Nc1ncccc1-n1cnc(Cn2nc(-c3ccc(Cl)cc3)n(C[C@H](O)C(F)(F)F)c2=O)n1)c1csnn1 [Example 100] | 1060 nM | 26.5 nM | 40.2
16 | O=C(Nc1ncccc1-n1cnc(Cn2nc(-c3ccc(Cl)cc3)n(C[C@H](O)C(F)(F)F)c2=O)n1)c1ccccc1O [Example 101] | 1950 nM | 110 nM | 17.7
17 | Cc1cc(C(=O)Nc2ncccc2-n2cnc(Cn3nc(-c4ccc(Cl)cc4)n(C[C@H](O)C(F)(F)F)c3=O)n2)on1 [Example 102] | 1150 nM | 80 nM | 14.4
18 | O=C(CN1CCCCC1)Nc1ncccc1-n1cnc(Cn2nc(-c3ccc(Cl)cc3)n(C[C@H](O)C(F)(F)F)c2=O)n1 [Example 103] | 2400 nM | 155 nM | 15.5
19 | O=C(Nc1ncccc1-n1cnc(Cn2nc(-c3ccc(Cl)cc3)n(C[C@H](O)C(F)(F)F)c2=O)n1)c1cnccn1 [Example 104] | 1600 nM | 8.25 nM | 193.9
20 | O=C(CC1CCCCC1)Nc1ncccc1-n1cnc(Cn2nc(-c3ccc(Cl)cc3)n(C[C@H](O)C(F)(F)F)c2=O)n1 [Example 105] | 1100 nM | 130 nM | 8.5

Row | SMILES | IC50 (human V2 receptor) | IC50 (human V1a receptor) | ratio IC50 hV2/hV1a (human V1a receptor)
21 | Cn1nccc1C(=O)Nc1ncccc1-n1cnc(Cn2nc(-c3ccc(Cl)cc3)n(C[C@H](O)C(F)(F)F)c2=O)n1 [Example 106] | 1200 nM | 2.35 nM | 510.6
22 | Cc1cccc(C(=O)Nc2ncccc2-n2cnc(Cn3nc(-c4ccc(Cl)cc4)n(C[C@H](O)C(F)(F)F)c3=O)n2)n1 [Example 107] | 710 nM | 5.65 nM | 125.7
23 | Cc1nc(C(=O)Nc2ncccc2-n2cnc(Cn3nc(-c4ccc(Cl)cc4)n(C[C@H](O)C(F)(F)F)c3=O)n2)no1 [Example 108] | 700 nM | 31.5 nM | 22.2
24 | CN1CCC(C(=O)Nc2ncccc2-n2cnc(Cn3nc(-c4ccc(Cl)cc4)n(C[C@H](O)C(F)(F)F)c3=O)n2)CC1 [Example 109] | 6750 nM | 115 nM | 58.7
25 | CCn1ccc(C(=O)Nc2ncccc2-n2cnc(Cn3nc(-c4ccc(Cl)cc4)n(C[C@H](O)C(F)(F)F)c3=O)n2)n1 [Example 110] | 525 nM | 6.3 nM | 83.3
26 | CCn1nccc1C(=O)Nc1ncccc1-n1cnc(Cn2nc(-c3ccc(Cl)cc3)n(C[C@H](O)C(F)(F)F)c2=O)n1 [Example 111] | 1300 nM | 4.7 nM | 276.6
27 | CCn1cc(C(=O)Nc2ncccc2-n2cnc(Cn3nc(-c4ccc(Cl)cc4)n(C[C@H](O)C(F)(F)F)c3=O)n2)cn1 [Example 112] | 66000 nM | 170 nM | 388.2
28 | CC1(C(=O)Nc2ncccc2-n2cnc(Cn3nc(-c4ccc(Cl)cc4)n(C[C@H](O)C(F)(F)F)c3=O)n2)CCCCC1 [Example 113] | 835 nM | 91 nM | 9.2
29 | CC1CC1C(=O)Nc1ncccc1-n1cnc(Cn2nc(-c3ccc(Cl)cc3)n(C[C@H](O)C(F)(F)F)c2=O)n1 (stereo partly drawn) [Example 114] | 240 nM | 19 nM | 12.6
30 | O=C(Nc1ncccc1-n1cnc(Cn2nc(-c3ccc(Cl)cc3)n(C[C@H](O)C(F)(F)F)c2=O)n1)C1CCC1 [Example 115] | 490 nM | 31 nM | 15.8
31 | O=C(Nc1ncccc1-n1cnc(Cn2nc(-c3ccc(Cl)cc3)n(C[C@H](O)C(F)(F)F)c2=O)n1)c1ccccc1F [Example 116] | 1150 nM | 78 nM | 14.7
32 | CC(C)(C)C(=O)Nc1ncccc1-n1cnc(Cn2nc(-c3ccc(Cl)cc3)n(C[C@H](O)C(F)(F)F)c2=O)n1 [Example 117] | 1050 nM | 65.5 nM | 16.0
33 | CC1(C(=O)Nc2ncccc2-n2cnc(Cn3nc(-c4ccc(Cl)cc4)n(C[C@H](O)C(F)(F)F)c3=O)n2)COC1 [Example 118] | 1150 nM | 140 nM | 8.2
34 | CC[C@H](C)C(=O)Nc1ncccc1-n1cnc(Cn2nc(-c3ccc(Cl)cc3)n(C[C@H](O)C(F)(F)F)c2=O)n1 [Example 119] | 270 nM | 35 nM | 7.7
35 | CCC(C)(O)C(=O)Nc1ncccc1-n1cnc(Cn2nc(-c3ccc(Cl)cc3)n(C[C@H](O)C(F)(F)F)c2=O)n1 (stereo partly drawn) [Example 120] | 425 nM | 27 nM | 15.7
36 | O=C(Nc1ncccc1-n1cnc(Cn2nc(-c3ccc(Cl)cc3)n(C[C@H](O)C(F)(F)F)c2=O)n1)c1ccc(F)cc1 [Example 121] | 1500 nM | 52 nM | 28.8
37 | Cc1ccccc1C(=O)Nc1ncccc1-n1cnc(Cn2nc(-c3ccc(Cl)cc3)n(C[C@H](O)C(F)(F)F)c2=O)n1 [Example 122] | 1650 nM | 120 nM | 13.8
38 | Cc1ccc(C(=O)Nc2ncccc2-n2cnc(Cn3nc(-c4ccc(Cl)cc4)n(C[C@H](O)C(F)(F)F)c3=O)n2)cc1 [Example 123] | 2300 nM | 105 nM | 21.9
39 | Cc1n[nH]c(C)c1C(=O)Nc1ncccc1-n1cnc(Cn2nc(-c3ccc(Cl)cc3)n(C[C@H](O)C(F)(F)F)c2=O)n1 [Example 124] | 3800 nM | 315 nM | 12.1
40 | NC(=O)C1(C(=O)Nc2ncccc2-n2cnc(Cn3nc(-c4ccc(Cl)cc4)n(C[C@H](O)C(F)(F)F)c3=O)n2)CC1 [Example 125] | 360 nM | 29.5 nM | 12.2
